Earlier results, collected in patent US20140080923A1, “STEVIA BASED SWEETENING COMPOSITION” (STEVINOL LTD., priority 2011, published 2014).

Details: background statement

| Compound | sweetness compared with sucrose |
| --- | --- |
| C=C1C[C@@]23CC[C@H]4[C@@](C)(CCC[C@@]4(C)C(=O)O[C@@H]4O[C@H](CO)[C@@H](O)[C@H](O)[C@H]4O)[C@@H]2CC[C@]1(O[C@@H]1O[C@H](CO)[C@@H](O)[C@H](O[C@@H]2O[C@H](CO)[C@@H](O)[C@H](O)[C@H]2O)[C@H]1O[C@@H]1O[C@H](CO)[C@@H](O)[C@H](O)[C@H]1O)C3 [rebaudioside A] | ~300 times sweeter than sucrose |
| C=C1C[C@@]23CC[C@H]4[C@@](C)(CCC[C@@]4(C)C(=O)O[C@@H]4O[C@H](CO)[C@@H](O)[C@H](O)[C@H]4O)[C@@H]2CC[C@]1(O[C@@H]1O[C@H](CO)[C@@H](O)[C@H](O)[C@H]1O[C@@H]1O[C@H](CO)[C@@H](O)[C@H](O)[C@H]1O)C3 [stevioside] | ~300 times sweeter than sucrose |
